Test results published in the NIST ThermoML archive (doi:10.1016/j.fluid.2014.06.023).
Numbers after ± are expanded uncertainties.

What was measured:
[1] = refractive index (Na D-line) (dimensionless); settings: 293.15 K; 101.33 kPa; Crystal; Standard Abbe refractometry
[2] = 293.15 K, 101.33 kPa, Pycnometric method

Compound	refractive index [1]	mass density ([2]; Crystal) [kg/m3]	mass density ([2]; Liquid) [kg/m3]
Cl.N [ammonium chloride (NH4Cl)]	1.638 ± 0.0008	1527 ± 12	
CCCCO [butan-1-ol]			810 ± 12
